Laboratory results as given in patent US6358885B1, “Substituted phenylheterocyclic herbicides” (Mississippi State University, priority 1992, dated 2002).

Columns and labels:
cheatgrass = test: Test B preemergence/postemergence greenhouse plant response rating 0 to 10; type: in vivo, Bromus secalinus; settings: 0 to 10 scale
In short: (§1)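 Test chemicals, dissolved in a non-phytotoxic solvent, were applied to soil at planting and, at the same time, over foliage of seedlings at the one to four leaf stage.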

cotton = test: as above; type: in vivo, Gossypium hirsutum; settings: 0 to 10 scale
In short: as §1

lambsquarters [1] = test: as above; type: in vivo, Chenopodium album; settings: 0 to 10 scale
In short: as §1

rice = test: as above; type: in vivo, Oryza sativa; settings: 0 to 10 scale
In short: as §1

soybean [2] = test: as above; type: in vivo, Glycine max; settings: 0 to 10 scale
In short: as §1

velvetleaf [3] = test: as above; type: in vivo, Abutilon theophrasti; settings: 0 to 10 scale
In short: as §1

wild buckwheat = test: as above; type: in vivo, Polygonum convolvulus; settings: 0 to 10 scale
In short: as §1

purple nutsedge = test: as above; type: in vivo, Cyperus rotundus; settings: 0 to 10 scale
In short: as §1

barley = test: Test C preemergence/postemergence greenhouse plant response rating 0 to 100; type: in vivo, Hordeum vulgare; settings: POSTEMERGENCE
In short: (§2)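 Compounds in non-phytotoxic solvent applied preemergence to sandy loam one day after planting, postemergence at the 1–4 leaf stage, or to ~2.5 cm floodwater over silt loam.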

corn = test: as above; type: in vivo, Zea mays; settings: POSTEMERGENCE
In short: as §2

lambsquarters [4] = test: as above; type: in vivo, Chenopodium album; settings: POSTEMERGENCE
In short: as §2

morningglory = test: as above; type: in vivo, Ipomoea hederacea; settings: POSTEMERGENCE
In short: as §2

rape = test: as above; type: in vivo, Brassica napus; settings: POSTEMERGENCE
In short: as §2

sorghum = test: as above; type: in vivo, Sorghum bicolor; settings: POSTEMERGENCE
In short: as §2

soybean [5] = test: as above; type: in vivo, Glycine max; settings: POSTEMERGENCE
In short: as §2

sugar beet = test: as above; type: in vivo, Beta vulgaris; settings: POSTEMERGENCE
In short: as §2

velvetleaf [6] = test: as above; type: in vivo, Abutilon theophrasti; settings: POSTEMERGENCE
In short: as §2

umbrella sedge = test: Test C flood test plant response rating 0 to 100; type: in vivo, Cyperus difformis
In short: as §2

## COCN1C(=O)COc2cc(F)c(-c3nn4c(c3Cl)CCCC4)cc21 [Compound 55]
cheatgrass; POSTEMERGENCE, Rate 10 g/ha
  Plant response rating, Cheatgrass: 6
cheatgrass; POSTEMERGENCE, Rate 50 g/ha
  Plant response rating, Cheatgrass: 8
cheatgrass; PREEMERGENCE, Rate 10 g/ha
  Plant response rating, Cheatgrass: 1
cheatgrass; PREEMERGENCE, Rate 50 g/ha
  Plant response rating, Cheatgrass: 5
cotton; POSTEMERGENCE, Rate 10 g/ha
  Plant response rating, Cotton: 10
cotton; POSTEMERGENCE, Rate 50 g/ha
  Plant response rating, Cotton: 10
cotton; PREEMERGENCE, Rate 10 g/ha
  Plant response rating, Cotton: 6
cotton; PREEMERGENCE, Rate 50 g/ha
  Plant response rating, Cotton: 1
Lambsquarters [1]; POSTEMERGENCE, Rate 10 g/ha
  Plant response rating, Lambsquarter: 10
Lambsquarters [1]; POSTEMERGENCE, Rate 50 g/ha
  Plant response rating, Lambsquarter: 10
Lambsquarters [1]; PREEMERGENCE, Rate 50 g/ha
  Plant response rating, Lambsquarter: 10
rice; POSTEMERGENCE, Rate 10 g/ha
  Plant response rating, Rice: 3
rice; POSTEMERGENCE, Rate 50 g/ha
  Plant response rating, Rice: 4
rice; PREEMERGENCE, Rate 50 g/ha
  Plant response rating, Rice: 0
Soybean [2]; POSTEMERGENCE, Rate 10 g/ha
  Plant response rating, Soybean: 7
Soybean [2]; POSTEMERGENCE, Rate 50 g/ha
  Plant response rating, Soybean: 9
Soybean [2]; PREEMERGENCE, Rate 50 g/ha
  Plant response rating, Soybean: 0
Velvetleaf [3]; POSTEMERGENCE, Rate 10 g/ha
  Plant response rating, Velvetleaf: 10
Velvetleaf [3]; POSTEMERGENCE, Rate 50 g/ha
  Plant response rating, Velvetleaf: 9
Velvetleaf [3]; PREEMERGENCE, Rate 50 g/ha
  Plant response rating, Velvetleaf: 10
Wild buckwheat; POSTEMERGENCE, Rate 10 g/ha
  Plant response rating, Wild buckwheat: 10
Wild buckwheat; POSTEMERGENCE, Rate 50 g/ha
  Plant response rating, Wild buckwheat: 0
Wild buckwheat; PREEMERGENCE, Rate 50 g/ha
  Plant response rating, Wild buckwheat: 10
Purple nutsedge; POSTEMERGENCE, Rate 10 g/ha
  Plant response rating, Nutsedge: 2
Purple nutsedge; POSTEMERGENCE, Rate 50 g/ha
  Plant response rating, Nutsedge: 2
Purple nutsedge; PREEMERGENCE, Rate 50 g/ha
  Plant response rating, Nutsedge: 0
barley; 62 g/ha, 0 to 100 scale
  Plant response rating Barley Igri: 50
barley; Rate 1 g/ha
  Plant response rating (0 to 100), Barley Igri: 20
barley; Rate 4 g/ha
  Plant response rating (0 to 100), Barley Igri: 30
barley; Rate 16 g/ha
  Plant response rating (0 to 100), Barley Igri: 40
corn; 62 g/ha, 0 to 100 scale
  Plant response rating, Corn: 50
corn; Rate 1 g/ha
  Plant response rating (0 to 100), Corn: 30
corn; Rate 4 g/ha
  Plant response rating (0 to 100), Corn: 40
corn; Rate 16 g/ha
  Plant response rating (0 to 100), Corn: 50
Lambsquarters [4]; 62 g/ha, 0 to 100 scale
  Plant response rating Lambsquarters: 100
Lambsquarters [4]; Rate 1 g/ha
  Plant response rating (0 to 100), Lambsquarters: 100
Lambsquarters [4]; Rate 4 g/ha
  Plant response rating (0 to 100), Lambsquarters: 100
Lambsquarters [4]; Rate 16 g/ha
  Plant response rating (0 to 100), Lambsquarters: 100
morningglory; 62 g/ha, 0 to 100 scale
  Plant response rating, Morningglory: 100
morningglory; Rate 1 g/ha
  Plant response rating (0 to 100), Morningglory: 80
morningglory; Rate 4 g/ha
  Plant response rating (0 to 100), Morningglory: 100
morningglory; Rate 16 g/ha
  Plant response rating (0 to 100), Morningglory: 100
rape; 62 g/ha, 0 to 100 scale
  Plant response rating, Rape: 100
rape; Rate 1 g/ha
  Plant response rating (0 to 100), Rape: 60
rape; Rate 4 g/ha
  Plant response rating (0 to 100), Rape: 100
rape; Rate 16 g/ha
  Plant response rating (0 to 100), Rape: 100
sorghum; 62 g/ha, 0 to 100 scale
  Plant response rating, Sorghum: 60
sorghum; Rate 1 g/ha
  Plant response rating (0 to 100), Sorghum: 30
sorghum; Rate 4 g/ha
  Plant response rating (0 to 100), Sorghum: 40
sorghum; Rate 16 g/ha
  Plant response rating (0 to 100), Sorghum: 50
Soybean [5]; 62 g/ha, 0 to 100 scale
  Plant response rating, Soybean: 95
Soybean [5]; Rate 1 g/ha
  Plant response rating (0 to 100), Soybean: 40
Soybean [5]; Rate 4 g/ha
  Plant response rating (0 to 100), Soybean: 70
Soybean [5]; Rate 16 g/ha
  Plant response rating (0 to 100), Soybean: 90
Sugar beet; 62 g/ha, 0 to 100 scale
  Plant response rating, Sugar beet: 100
Sugar beet; Rate 1 g/ha
  Plant response rating (0 to 100), Sugar beet: 100
Sugar beet; Rate 4 g/ha
  Plant response rating (0 to 100), Sugar beet: 100
Sugar beet; Rate 16 g/ha
  Plant response rating (0 to 100), Sugar beet: 100
Velvetleaf [6]; 62 g/ha, 0 to 100 scale
  Plant response rating, Velvetleaf: 100
Velvetleaf [6]; Rate 1 g/ha
  Plant response rating (0 to 100), Velvetleaf: 80
Velvetleaf [6]; Rate 4 g/ha
  Plant response rating (0 to 100), Velvetleaf: 100
Velvetleaf [6]; Rate 16 g/ha
  Plant response rating (0 to 100), Velvetleaf: 100
Umbrella sedge; POSTEMERGENCE section, flood test, Rate 1 g/ha
  Plant response rating (0 to 100), Umbrella sedge: 10
Umbrella sedge; POSTEMERGENCE section, flood test, Rate 4 g/ha
  Plant response rating (0 to 100), Umbrella sedge: 30
Umbrella sedge; Rate 16 g/ha, under POSTEMERGENCE head (flood test species)
  Plant response rating (0 to 100), Umbrella sedge: 70
Umbrella sedge; flood test species listed under POSTEMERGENCE, 62 g/ha, 0 to 100 scale
  Plant response rating Umbrella sedge: 90
